Reference: publication PMC10385579, “Design, Synthesis, and Biological Evaluation of Indole-2-carboxamides as Potential Multi-Target Antiproliferative Agents” (Pharmaceuticals, 2023)

What was measured:
caspase-3 = experiment: Caspase 3 assay in A-549 cells; assay type: cell-based, human; details: for Caspase-3 Conc: untreated control 66 pg/mL
Protocol: Caspases play a crucial function in the induction and completion of apoptosis. Caspase-3 is an essential caspase that cleaves different proteins in cells, resulting in apoptosis. […]
4.2.5. Caspase-3 activation assay
Allow all reagents to reach room temperature before use. Gently mix all liquid reagents prior to use. Determine the number of 8-well strips needed for the assay. Insert these in the frame(s) for current use. Add 100 μl of the Standard Diluent Buffer to the zero standard wells. Well(s) reserved for chromogen blank should be left empty. Add 100 μl of standards and controls or diluted samples to the appropriate microtiter wells. The sample dilution chosen should be optimized for each experimental system. Tap gently on side of plate to mix. Cover wells with plate cover and incubate for 2 hours at room temperature. Thoroughly aspirate or decant solution from wells and discard the liquid, Wash wells 4 times. Pipette 100 μl of Caspase-3 (Active) Detection Antibody solution into each well except the chromogen blank(s). Tap gently on the side of the plate to mix. Cover plate with plate cover and incubate for 1 hour at room temperature. Thoroughly aspirate or decant solution from wells and discard the liquid, Wash wells 4 times. Add 100 μl Anti-Rabbit IgG HRP Working Solution to each well except the chromogen blank(s). Prepare the working dilution as described in Preparing IgG HRP. Cover wells with the plate cover and incubate for 30 minutes at room temperature. Thoroughly aspirate or decant solution from wells and discard the liquid. Wash wells 4 times. Add 100 μl of Stabilized Chromoge n to each well. The liquid in the wells will begin to turn blue. Incubate for 30 minutes at room temperature and in the dark. The incubation time for chromogen substrate is often determined by the microtiter plate reader used. Many plate readers have the capacity to record a maximum optical density (O.D.) of 2.0. The O.D. values should be monitored, and the substrate reaction stopped before the O.D. of the positive wells exceeds the limits of the instrument. The O.D. values at 450 nm can only be read after the Stop Solution has been added to each well. If using a reader that records only to 2.0 O.D., stopping the assay after […]
Add 100 μl of Stop Solution to each well. Tap side of plate gently to mix. The solution in the wells should change from blue to yellow. Read the absorbance of each well at 450 nm having blanked the plate reader against a chromogen blank composed of 100 μl each of Stabilized Chromogen and Stop Solution. Read the plate within 2 hours after adding the Stop Solution. Use a curve fitting software to generate the standard curve. A four-parameter algorithm provides the best standard curve fit. Read the concentrations for unknown samples and controls from the standard curve. Multiply value(s) obtained for sample(s) by the appropriate dilution factor to correct for the dilution in step 3. Samples producing signals greater than that of the highest standard should be diluted in Standard Diluent Buffer and reanalyzed.

BRAF^V600E = BRAF^V600E (Mus musculus, UniProt P28028, V585E); experiment: BRAF^V600E inhibitory assay
Chain of BRAF^V600E (P28028 whole entry V585E): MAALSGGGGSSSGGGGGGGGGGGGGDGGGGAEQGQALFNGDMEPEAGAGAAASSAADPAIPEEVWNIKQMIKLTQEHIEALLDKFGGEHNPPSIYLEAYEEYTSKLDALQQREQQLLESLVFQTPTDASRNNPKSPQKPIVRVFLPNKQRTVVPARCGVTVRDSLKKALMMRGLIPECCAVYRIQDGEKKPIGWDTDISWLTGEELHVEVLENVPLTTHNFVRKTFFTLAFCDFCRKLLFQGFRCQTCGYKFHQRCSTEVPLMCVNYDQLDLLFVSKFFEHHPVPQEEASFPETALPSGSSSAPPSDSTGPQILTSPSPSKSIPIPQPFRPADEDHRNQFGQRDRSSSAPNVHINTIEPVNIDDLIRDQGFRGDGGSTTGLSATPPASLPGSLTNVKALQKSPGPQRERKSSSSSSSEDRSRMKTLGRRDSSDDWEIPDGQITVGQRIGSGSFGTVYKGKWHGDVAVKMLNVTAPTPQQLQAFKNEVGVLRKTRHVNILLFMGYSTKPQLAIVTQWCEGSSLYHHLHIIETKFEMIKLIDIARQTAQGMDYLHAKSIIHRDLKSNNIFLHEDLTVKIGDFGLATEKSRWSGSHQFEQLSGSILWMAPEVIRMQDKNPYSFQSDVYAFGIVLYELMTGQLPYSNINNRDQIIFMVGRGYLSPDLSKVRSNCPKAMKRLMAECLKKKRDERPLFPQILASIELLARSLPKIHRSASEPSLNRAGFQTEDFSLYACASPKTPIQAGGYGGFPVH
Protocol: BRAFV600E inhibitory assay
V600E mutant BRAF kinase assay was performed to investigate the activity of tested compounds against BRAF. Mouse full-length GST-tagged BRAFV600E (7.5 ng, Invitrogen, PV3849) was pre-incubated with drug (1 µL) and assay dilution buffer (4 µL) for 60 min at 25 °C. In assay dilution buffer, a solution (5 µL) containing MgCl2 (30 mM), ATP (200 µM), recombinant human full length (200 ng) and N-terminal His-tagged MEK1 (Invitrogen) was added to start the assay, subsequent to incubation for 25 min at 25 °C. The assay was stopped using 5X protein denaturing buffer (LDS) solution (5 µL). To further denature the protein, heat (70° C) was applied for 5 min.
10 µL of each reaction was loaded into the precast plates and electrophoresis was allowed to proceed. After completion of electrophoresis, the front part of the precast gel plate (holding hot ATP) was cut and afterwards cast-off. The dried gel was developed using a phosphor screen.

[1] = Cell viability assay (MTT) on MCF-10A; assay type: cell-based; details: human, MCF-10A mammary gland epithelial cells, MCF-10A cells, four days
Protocol: To assess the viability of compounds IV and Va–i, the human mammary gland epithelial (MCF-10A) cell line was exploited. Compounds IV and Va–i were cultured for four days on MCF-10A cells before being evaluated for vitality using the MTT assay.
To test the viability of the new compounds, the human mammary gland epithelial (MCF-10A) cell line was used. Compounds IV and Va–i were incubated on MCF-10A cells for four days before being tested for viability using the MTT assay. See Supplementary Materials.
4.2. Biological evaluation
4.2.1. Cytotoxic activity using MTT Assay and evaluation of IC50
MTT assay was performed to investigate the effect of the synthesized compounds on mammary epithelial cells (MCF-10A). The cells were propagated in medium consisting of Ham's F-12 medium/ Dulbecco's modified Eagle's medium (DMEM) (1:1) supplemented with 10% foetal calf serum, 2 mM glutamine, insulin (10 μg/mL), hydrocortisone (500 ng/mL) and epidermal growth factor (20 ng/mL). Trypsin ethylenediamine tetra acetic acid (EDTA) was used to passage the cells after every 2-3 days. 96-well flat-bottomed cell culture plates were used to seed the cells at a density of 10^4 cells mL-1. The medium was aspirated from all the wells of culture plates after 24 h followed by the addition of synthesized compounds (in 200 μL medium to yield a final concentration of 0.1% (v/v) dimethyl sulfoxide) into individual wells of the plates. Four wells were designated to a single compound. The plates were allowed to incubate at 37°C for 96 h. Afterwards, the medium was aspirated and 3-[4,5-dimethylthiazol-2-yl]-2,5-diphenyltetrazolium bromide (MTT) (0.4 mg/mL) in medium was added to each well and subsequently incubated for 3 h. The medium was aspirated and 150 μL dimethyl sulfoxide (DMSO) was added to each well. The plates were vortexed followed by the measurement of absorbance at 540 nm on a microplate reader. The results were presented as inhibition (%) of proliferation in contrast to controls comprising 0.1%

EGFR = EGFR (Homo sapiens, UniProt P00533); experiment: EGFR inhibitory assay
Chain of EGFR (P00533 669-1210): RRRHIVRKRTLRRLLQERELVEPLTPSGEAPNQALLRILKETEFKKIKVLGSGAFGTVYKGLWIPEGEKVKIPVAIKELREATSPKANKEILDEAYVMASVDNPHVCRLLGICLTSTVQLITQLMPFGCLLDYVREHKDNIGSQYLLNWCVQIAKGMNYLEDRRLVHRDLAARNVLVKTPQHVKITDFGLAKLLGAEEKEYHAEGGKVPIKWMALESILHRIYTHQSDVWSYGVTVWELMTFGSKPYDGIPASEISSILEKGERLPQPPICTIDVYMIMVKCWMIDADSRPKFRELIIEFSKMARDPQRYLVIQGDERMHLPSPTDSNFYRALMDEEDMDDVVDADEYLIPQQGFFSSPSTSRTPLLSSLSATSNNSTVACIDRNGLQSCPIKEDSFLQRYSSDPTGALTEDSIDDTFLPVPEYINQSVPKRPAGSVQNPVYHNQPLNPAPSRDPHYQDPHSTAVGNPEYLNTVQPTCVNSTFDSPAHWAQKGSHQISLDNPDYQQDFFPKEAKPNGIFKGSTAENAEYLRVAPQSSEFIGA

[2] = system: human epithelial (A-549) cancer cell line; experiment: Antiproliferative assay, A-549; assay type: cell-based; details: A549, read-out: Antiproliferative Activity IC50 ± SEM, A-549
Protocol: 4.2.1.2. Assay for antiproliferative effect
To explore the antiproliferative potential of compounds propidium iodide fluorescence assay was performed using different cell lines such as Panc-1 (pancreas cancer cell line), MCF-7 (breast cancer cell line), HT-29 (colon cancer cell line) and A-549 (epithelial cancer cell line), respectively.
To calculate the total nuclear DNA, a fluorescent dye (propidium iodide, PI) is used which can attach to the DNA, thus offering a quick and precise technique. PI cannot pass through the cell membrane and its signal intensity can be considered as directly proportional to quantity of cellular
DNA. Cells whose cell membranes are damaged or have changed permeability are counted as dead ones. The assay was performed by seeding the cells of different cell lines at a density of 3000-7500 cells/well (in200μl medium) in culture plates followed by incubation for 24h at 37 °C in humidified 5%CO2/95% air atmospheric conditions. The medium was removed; the compounds were added to the plates at 10 μM concentrations (in 0.1% DMSO) in triplicates, followed by incubation for 48h. DMSO (0.1%) was used as control. After incubation, medium was removed followed by the addition of PI (25 μl, 50μg/mL in water/medium) to each well of the plates. At - 80 °C, the plates were allowed to freeze for 24 h, followed by thawing at 25 °C. A fluorometer (Polar-Star BMG Tech) was used to record the readings at excitation and emission wavelengths of 530 and 620 nm for each well. The percentage cytotoxicity of compounds was calculated using […]
Where ATC= Absorbance of treated cells and AC= Absorbance of control. Erlotinib was used as positive control in the assay.

| IC50 (BRAF^V600E) [µM] | IC50 (EGFR) [µM] | IC50 [2] [µM] | Compound | Caspase-3 Conc (caspase-3) [pg/mL] | viability at 96 h, 50 µM [1] [%] | Caspase-3 Fold Change (caspase-3; vs untreated control) |
| --- | --- | --- | --- | --- | --- | --- |
| 0.077 ± 0.006 | 0.071 ± 0.006 | 0.025 ± 0.002 | O=C(NCC(c1ccccc1)c1c(-c2ccccc2)[nH]c2ccccc12)c1cc2cc(Cl)ccc2[nH]1 (centres unmarked) [Compound Va, 5-Chloro-N-(2-phenyl-2-(2-phenyl-1H-indol-3-yl)ethyl)-1H-indole-2-carboxamide] | 726 ± 6 | 91 |  |
| 0.083 ± 0.006 | 0.079 ± 0.006 | 0.03 ± 0.002 | CO/C=C/c1c(C(=O)NCC(c2ccccc2)c2c(-c3ccccc3)[nH]c3ccccc23)[nH]c2ccc(Cl)cc12 (centres unmarked) [Compound Vg, (E)-5-Chloro-3-(2-methoxyvinyl)-N-(2-phenyl-2-(2-phenyl-1H-indol-3-yl)ethyl)-1H-indole-2-carboxamide] | 528 ± 5 | 89 | ~8 |
